Values joined by “and” are separate entries in the source; they are usually repeats but may differ in a detail not shown here. Identical values can stand only once.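 Where inhibition never reached the appropriate level, the endpoint shown equals the highest concentration tested. Otherwise, values were interpolated linearly from a five-concentration, 48-hour dose response in 96-well plates. GI50: concentration for 50% inhibition of growth. Definition used: TGI = concentration required for complete inhibition of growth.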
How the values were obtained:
Assay in all cases: growth of human tumour cells (NCI), 48 h
ACHN renal = system: ACHN renal
DLD-1 colon = system: DLD-1 colon
DMS 114 small cell lung = system: DMS 114 small cell lung
DMS 273 small cell lung = system: DMS 273 small cell lung
HOP-18 NSCLC = system: HOP-18 NSCLC
IGROV1 ovarian = system: IGROV1 ovarian
KM20L2 colon = system: KM20L2 colon
LXFL 529 NSCLC = system: LXFL 529 NSCLC
M19-MEL melanoma = system: M19-MEL melanoma
MALME-3M melanoma = system: MALME-3M melanoma
NCI-H522 lung = system: NCI-H522 lung
OVCAR-4 ovarian = system: OVCAR-4 ovarian
RXF-631 renal = system: RXF-631 renal
SK-MEL-5 melanoma = system: SK-MEL-5 melanoma
SNB-78 CNS = system: SNB-78 CNS
UACC-62 melanoma = system: UACC-62 melanoma
XF 498 CNS = system: XF 498 CNS
MDA-MB-231 breast = system: MDA-MB-231 breast

Row | SMILES | TGI (ACHN renal) | TGI (DLD-1 colon) | TGI (DMS 114 small cell lung) | TGI (DMS 273 small cell lung) | TGI (HOP-18 NSCLC) | TGI (IGROV1 ovarian) | TGI (KM20L2 colon) | TGI (LXFL 529 NSCLC) | TGI (M19-MEL melanoma) | TGI (MALME-3M melanoma) | TGI (NCI-H522 lung) | TGI (OVCAR-4 ovarian) | TGI (RXF-631 renal) | TGI (SK-MEL-5 melanoma) | TGI (SNB-78 CNS) | TGI (UACC-62 melanoma) | TGI (XF 498 CNS) | GI50 (HOP-18 NSCLC) | TGI (MDA-MB-231 breast)
1 | CC(C)(C)N=CN1C=Cc2nc3ccccc3cc2C1 | > 100 µM | > 100 µM | > 100 µM | > 100 µM | > 100 µM | > 100 µM | > 100 µM | > 100 µM | > 100 µM | > 100 µM | > 100 µM | > 100 µM | > 100 µM | > 100 µM | > 100 µM | > 100 µM | > 100 µM | – | –
2 | CCOC1=C2N=C(C(CC)c3ccccc3F)N=C2C(=O)c2ccccc21 (centres undefined) | > 100 µM | – | > 100 µM | > 100 µM | – | – | > 100 µM | > 100 µM | > 100 µM | > 100 µM | > 100 µM | > 100 µM | > 100 µM | – | – | > 100 µM | – | – | –
3 | CC1=CC2C(C=C1)S(=O)(=O)N1CC21c1ccccc1 (centres undefined) | > 100 µM | > 100 µM | > 100 µM | > 100 µM | > 100 µM | > 100 µM | > 100 µM | > 100 µM | > 100 µM | > 100 µM | > 100 µM | – | – | > 100 µM | > 100 µM | > 100 µM | – | – | –
4 | O=Cc1c[nH]c2c(=O)[nH]cnc12 | > 100 µM | > 100 µM | > 100 µM | – | > 100 µM | > 100 µM | – | > 100 µM | > 100 µM | > 100 µM | > 100 µM | – | – | > 100 µM | > 100 µM | > 100 µM | – | – | –
5 | COc1ccc2[nH]c3c(c2c1)[C@H](c1ccccc1)C[C@@H]1C(=O)N(c2ccccc2)C(=O)[C@H]31 | 42.9 µM | > 100 µM | 92.7 µM | > 100 µM | 6.5 µM | > 100 µM | > 100 µM | > 100 µM | > 100 µM | > 100 µM | > 100 µM | 31 µM | > 100 µM | > 100 µM | > 100 µM | > 100 µM | 55.8 µM | – | –
6 | O=C(Cc1ccccc1)NN1C(=O)C(Cl)C1c1ccccc1Cl (centres undefined) | > 100 µM | > 100 µM | > 88.4 µM | > 100 µM | > 100 µM | > 93.1 µM | > 100 µM | > 100 µM | > 100 µM | > 100 µM | 28 µM | > 100 µM | – | > 100 µM | > 100 µM | > 100 µM | > 100 µM | – | –
7 | CCOC(=O)c1c2ccc(/C=C/c3ccccn3)ccc-2c(C(=O)OCC)c1N | > 100 µM | > 100 µM | > 100 µM | > 100 µM | > 100 µM | > 100 µM | > 100 µM | > 100 µM | > 100 µM | > 100 µM | > 100 µM | > 100 µM | > 100 µM | > 100 µM | – | > 100 µM | – | – | –
8 | COc1cc2c(c(OC)c1OC)-c1ccc(SC)c(=O)cc1[C@@H](NCc1ccc(F)cc1)CC2 | 75 µM and 49.2 µM | 75 µM and > 100 µM | – | – | 51.3 µM and > 100 µM | 75 µM | < 0.0075 µM | 10.1 µM and 18.2 µM | 75 µM and 13.3 µM | 34.2 µM and 28.4 µM | – | > 100 µM | 52.4 µM | – | 65.6 µM and > 100 µM | – | – | > 100 µM | –
9 | COc1cc2ccc3c4ccccc4cnc3c2cc1OC | > 100 µM | > 100 µM | – | – | > 100 µM | > 100 µM | > 100 µM | > 100 µM | > 100 µM | > 100 µM | > 100 µM | > 100 µM | > 100 µM | > 100 µM | > 100 µM | > 100 µM | – | – | –
10 | N#CC(NNC(=O)Cc1ccccc1)c1cccc(O)c1 (centres undefined) | > 100 µM | > 100 µM | > 100 µM | > 100 µM | > 100 µM | > 100 µM | – | > 100 µM | > 100 µM | > 100 µM | > 100 µM | > 100 µM | – | > 100 µM | > 100 µM | > 100 µM | – | – | –
11 | COC(=O)C1CC2C=CC=CC(=O)C2(C)C1 (centres undefined) | > 100 µM | 28.9 µM | > 100 µM | – | – | > 100 µM | > 100 µM | > 100 µM | > 100 µM | > 100 µM | – | > 100 µM | – | > 100 µM | > 100 µM | > 100 µM | – | – | –
12 | CC(C)c1cccc(C(C)C)c1NC(=O)C(=O)Cc1nc2ccc([N+](=O)[O-])cc2[nH]c1=O | > 100 µM | > 100 µM | > 100 µM | > 100 µM | > 100 µM | > 100 µM | > 100 µM | > 100 µM | > 100 µM | > 100 µM | 54.4 µM | > 100 µM | > 100 µM | – | – | > 100 µM | – | – | –
13 | CC(=O)CCCCn1c(=O)c2c(nc(Br)n2C)n(C)c1=O | > 100 µM | – | – | – | – | > 100 µM | – | – | – | > 100 µM | 24.9 µM | > 100 µM | – | > 100 µM | – | > 100 µM | – | – | > 100 µM
14 | CC1=C(c2nc3ccccc3s2)C(=O)OC1(C)C | > 100 µM | > 100 µM | > 100 µM | > 100 µM | – | – | > 100 µM | > 100 µM | > 100 µM | > 100 µM | > 100 µM | > 100 µM | > 100 µM | > 100 µM | > 100 µM | > 100 µM | > 100 µM | – | –
15 | Cc1cccc(C2ON=C(c3ccccc3)N2C23CC4CC(CC(C4)C2)C3)c1 (centres undefined) | > 10 µM | – | – | – | – | > 10 µM | – | – | – | > 10 µM | > 10 µM | > 10 µM | – | > 10 µM | – | > 10 µM | – | – | > 10 µM
16 | Cc1cc2ncn(-c3nc4ccccc4nc3C(C#N)S(C)(=O)=O)c2cc1C (centres undefined) | > 100 µM | > 100 µM | > 100 µM | > 100 µM | – | > 100 µM | > 100 µM | > 100 µM | > 100 µM | > 100 µM | > 100 µM | > 100 µM | – | > 100 µM | > 100 µM | > 100 µM | > 100 µM | – | –
17 | CS(=O)(=O)N1CC(CCl)c2ccc(NO)cc21 (centres undefined) | 21 µM | – | – | – | – | 29 µM | – | – | – | 37.7 µM | 16.3 µM | 40.7 µM | – | 28.2 µM | – | 26.5 µM | – | – | 30.5 µM
18 | COCC(C)(C)N=CN1Cc2cc3ccccc3nc2C1 | > 100 µM | > 100 µM | > 100 µM | – | > 100 µM | > 100 µM | > 100 µM | – | > 100 µM | > 100 µM | > 100 µM | > 100 µM | – | > 100 µM | – | > 100 µM | > 100 µM | – | –
19 | O=C1Oc2ccccc2C1C/C(=N\Nc1ccccc1)c1ccccc1O (centres undefined) | > 100 µM | – | – | – | – | > 100 µM | – | – | – | > 100 µM | 98 µM | > 100 µM | – | > 100 µM | – | > 100 µM | – | – | > 100 µM
20 | CC(=O)Nc1[nH]n(C)c(=O)c1-c1nnc(C)s1 | > 100 µM | > 100 µM | > 100 µM | > 100 µM | – | > 100 µM | > 100 µM | > 100 µM | – | > 100 µM | > 100 µM | > 100 µM | > 100 µM | > 100 µM | > 100 µM | – | > 100 µM | – | –
21 | CNC(=O)c1n[nH]n(C2CCCCC2)c1=S | > 100 µM | – | – | – | – | > 100 µM | – | – | – | > 100 µM | > 100 µM | > 100 µM | – | > 100 µM | – | > 100 µM | – | – | > 100 µM
22 | CCCCCCCC/C=C1\CCC(CN(C)C)C1=O (centres undefined) | 18.7 µM | 4.9 µM | 13.6 µM | 5.12 µM | 33.8 µM | 20.8 µM | 19.8 µM | 3.01 µM | 10.5 µM | 14.3 µM | 13.3 µM | 29.1 µM | 17.9 µM | 21.7 µM | 27.2 µM | 19.6 µM | 12.8 µM | – | –
23 | C=C1CC(C)(COc2ccc3c(C)c(Cl)c(=O)oc3c2)OC1=O (centres undefined) | 11.4 µM | – | – | – | – | 3.94 µM | – | – | – | 7.63 µM | 2.1 µM | 10.4 µM | – | 4.2 µM | – | 3.01 µM | – | – | 12.6 µM
24 | COC(=O)C(=O)C(C(=O)OC)C(=O)C(=O)Nc1c(C)cccc1C (centres undefined) | > 100 µM | > 100 µM | > 100 µM | – | > 100 µM | > 100 µM | > 100 µM | > 100 µM | > 100 µM | > 100 µM | > 100 µM | > 100 µM | > 100 µM | > 100 µM | > 100 µM | > 100 µM | > 100 µM | – | –
25 | CCC(NC(C)c1ccccc1)C(=O)c1ccc(OCc2ccccc2)c(OCc2ccccc2)c1 (centres undefined) | > 100 µM | – | – | – | – | > 100 µM | – | – | – | > 100 µM | > 100 µM | > 100 µM | – | > 100 µM | – | > 100 µM | – | – | > 100 µM

— PubChem BioAssay (NCI)
